Measured values published in ChEMBL document CHEMBL3272043, “Isoxazole anthelmintics” (1977).
The source made the active and inactive calls. No cut-off for these calls is given here.

System: Nippostrongylus brasiliensis
Test: Anthelmintic activity against Nippostrongylus brasiliensisin in parasitized po dosed albino rat assessed as dose required to 75 % clearance relative to untreated control
Assay type: functional
Conditions: read-out: MED

Structure (SMILES)	minimal effective dose
Brc1cc(-c2ccccc2)no1	16 mg/kg
c1ccc(-c2cc(N3CCOCC3)on2)cc1	500 mg/kg
Clc1noc(-c2ccccc2)c1Cl	31 mg/kg
Brc1cc(-c2ccccc2)on1	31 mg/kg
Clc1cc(-c2cccs2)on1	250 mg/kg
CCOc1cc(-c2ccccc2)no1	31 mg/kg
Clc1cc(-c2ccccc2)no1	16 mg/kg
Ic1cc(-c2ccccc2)on1	250 mg/kg
Clc1ccc(-c2cc(Cl)no2)c(Cl)c1	62 mg/kg
Clc1cc(-c2ccccc2)on1	31 mg/kg
CSc1cc(-c2ccccc2)no1	31 mg/kg
Cc1ccc(-c2cc(Cl)no2)cc1	500 mg/kg
CN(C)c1cc(-c2ccccc2)no1	125 mg/kg
C=CCCCOc1cc(-c2ccccc2)no1	125 mg/kg
Clc1cc(-c2ccc(Cl)c(Cl)c2)on1	250 mg/kg
COc1cc(-c2ccccc2)no1	31 mg/kg
CCSc1cc(-c2ccccc2)no1	125 mg/kg
Clc1ccc(-c2cc(Cl)no2)cc1	62 mg/kg
Clc1ccc(-c2cc(Br)no2)cc1	250 mg/kg

System: Nippostrongylus brasiliensis
Test: Anthelmintic activity against Nippostrongylus brasiliensisin in parasitized albino rat assessed as dose required to 75 % clearance at 500 mg/kg, po relative to untreated control
Assay type: functional, organism-based
Set-up: dose 500 mg/kg
Conditions: not given

Structure (SMILES)	Activity
CS(=O)(=O)Oc1cc(-c2ccccc2)on1	inactive
CS(=O)(=O)c1cc(-c2ccccc2)no1	inactive
O=C(CC[N+](=O)[O-])c1cccs1	inactive
O=C(CC[N+](=O)[O-])c1ccccc1	inactive
CNC(=O)Nc1cc(-c2ccccc2)on1	inactive
Oc1cc(-c2ccc(Cl)cc2)on1	inactive
CSc1onc(-c2ccccc2)c1Cl	inactive
O=C(Nc1noc(-c2ccccc2)c1Cl)C(F)(F)F	inactive
c1ccc(-c2ccon2)cc1	inactive
O=[N+]([O-])c1cc(-c2cc(Cl)no2)ccc1Cl	inactive
Nc1noc(-c2ccccc2)c1Br	inactive
O=[N+]([O-])c1ccc(-c2cc(Cl)no2)cc1	inactive
O=C(CC[N+](=O)[O-])c1ccc(Cl)cc1Cl	inactive
COc1onc(-c2ccccc2)c1Cl	inactive
O=C(Nc1cc(-c2ccccc2)on1)C(F)(F)F	inactive
c1ccc(CSc2cc(-c3ccccc3)no2)cc1	inactive
O=C(CC[N+](=O)[O-])c1ccc(Cl)c(Cl)c1	inactive
Clc1onc(-c2ccccc2)c1Cl	inactive
COC(=O)Nc1cc(-c2ccccc2)on1	inactive
CCSCCOc1cc(-c2ccccc2)no1	inactive
O=C(CC[N+](=O)[O-])c1ccc(Cl)cc1	inactive
C=CCc1c(-c2ccccc2)noc1Cl	inactive
Nc1cc(-c2ccccc2)on1	inactive
Clc1ccc(-c2ccno2)cc1	inactive
Cc1ccc(C(=O)CC[N+](=O)[O-])cc1	inactive
Nc1noc(-c2ccccc2)c1Cl	inactive
C[S+]([O-])c1cc(-c2ccccc2)no1 (stereo not drawn)	inactive
FC(F)(F)c1cc(-c2ccccc2)no1	inactive
FC(F)(F)c1cc(-c2ccccc2)on1	inactive
